Test results: ChEMBL document CHEMBL3414572, “Identification of fused 16β,17β-oxazinone-estradiol derivatives as a new family of non-estrogenic 17β-hydroxysteroid dehydrogenase type 1 inhibitors” (Eur J Med Chem, 2015)
One block for each compound: values may come before it. Active and inactive are the calls of the source. The rule behind the calls is not given here.

What was measured:
[1] = target: T1, 17-beta-hydroxysteroid dehydrogenase type 1 (Homo sapiens) (UniProt P14061); assay: Inhibition of 17 beta-HSD1 in human T47D cells assessed as inhibition of transformation of [14C]E1 to [14C]E2 at 10 uM after overnight incubation; format: cell-based
T1 sequence (whole entry): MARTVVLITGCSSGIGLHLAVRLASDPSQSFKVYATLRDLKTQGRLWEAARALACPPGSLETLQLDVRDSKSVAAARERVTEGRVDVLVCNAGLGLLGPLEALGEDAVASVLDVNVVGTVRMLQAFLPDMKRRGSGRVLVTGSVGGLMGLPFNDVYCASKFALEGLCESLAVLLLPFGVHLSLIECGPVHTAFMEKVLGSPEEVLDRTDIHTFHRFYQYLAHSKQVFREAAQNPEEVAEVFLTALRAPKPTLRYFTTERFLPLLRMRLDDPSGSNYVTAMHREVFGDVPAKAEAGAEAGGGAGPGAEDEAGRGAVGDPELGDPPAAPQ

T47D [2] = assay: Estrogenic activity in human T47D cells assessed as cell proliferation at 0.5 uM incubated for 7 days with replacement of media in every 2 days by CellTitre-Glo assay; format: functional
T47D [3] = assay: Estrogenic activity in human T47D cells assessed as cell proliferation at 0.1 uM incubated for 7 days with replacement of media in every 2 days by CellTitre-Glo assay; format: functional
[4] = target: T2, 17-beta-hydroxysteroid dehydrogenase type 2 (Homo sapiens) (UniProt P37059); assay: Inhibition of 17 beta-HSD2 (unknown origin) transfected in HEK293 cells using [14C]E2 as substrate at 1 uM; format: cell-based
T2 sequence (whole entry): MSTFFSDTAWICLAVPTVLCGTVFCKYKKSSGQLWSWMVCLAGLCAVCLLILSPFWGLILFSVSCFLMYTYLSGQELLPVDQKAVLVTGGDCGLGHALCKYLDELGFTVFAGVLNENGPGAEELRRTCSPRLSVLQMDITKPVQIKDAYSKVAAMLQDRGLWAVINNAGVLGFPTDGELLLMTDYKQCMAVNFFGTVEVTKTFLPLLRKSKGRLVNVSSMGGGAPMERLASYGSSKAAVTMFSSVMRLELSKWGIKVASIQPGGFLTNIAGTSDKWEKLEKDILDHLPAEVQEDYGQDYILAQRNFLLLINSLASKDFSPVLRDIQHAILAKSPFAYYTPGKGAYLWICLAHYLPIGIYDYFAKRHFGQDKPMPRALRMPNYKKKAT

[5] = target: T3, 17-beta-hydroxysteroid dehydrogenase type 1 (Homo sapiens, UniProt P14061); assay: Inhibition of 17 beta-HSD1 in human T47D cells assessed as inhibition of transformation of [14C]E1 to [14C]E2 after overnight incubation; format: cell-based
T3 sequence (P14061 whole entry): T1 sequence (whole entry)

[6] = target: T2, 17-beta-hydroxysteroid dehydrogenase type 2 (Homo sapiens); assay: Inhibition of 17 beta-HSD2 (unknown origin) transfected in HEK293 cells using [14C]E2 as substrate at 10 uM; format: cell-based
[7] = target: T4, Very-long-chain 3-oxoacyl-CoA reductase (Homo sapiens) (UniProt Q53GQ0); assay: Inhibition of 17 beta-HSD12 (unknown origin) at 10 uM
T4 sequence (whole entry): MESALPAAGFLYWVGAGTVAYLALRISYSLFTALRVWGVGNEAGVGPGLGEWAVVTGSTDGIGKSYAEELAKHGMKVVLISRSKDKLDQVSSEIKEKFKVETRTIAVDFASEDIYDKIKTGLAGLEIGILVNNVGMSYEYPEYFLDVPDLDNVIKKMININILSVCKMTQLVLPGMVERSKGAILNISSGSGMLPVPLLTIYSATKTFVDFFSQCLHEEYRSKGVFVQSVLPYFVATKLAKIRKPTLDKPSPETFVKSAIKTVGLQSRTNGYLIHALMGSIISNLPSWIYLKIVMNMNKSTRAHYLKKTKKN

Compound: C[C@]12CC[C@@H]3c4ccc(O)cc4CC[C@H]3[C@@H]1CC[C@@H]2O [ESTRADIOL]
growth at 0.5 µM (T47D [2]; read-out: Activity): 380%
growth at 0.1 µM (T47D [3]; read-out: Activity): 320%

Compound: CCN1C(=O)O[C@H]2C(=C[C@H]3[C@@H]4CCc5cc(O)ccc5[C@H]4CC[C@]23C)[C@@H]1c1cccc(C(N)=O)c1
inhibition [1]: Active

Compound: CCCCN1C(=O)O[C@H]2C(=C[C@H]3[C@@H]4CCc5cc(O)ccc5[C@H]4CC[C@]23C)[C@@H]1c1cccc(C(N)=O)c1
inhibition [4]: 10%
Activity (T47D [2]): inactive
inhibition [1]: Active
Activity (T47D [3]): inactive
IC50 [5]: 1.4 µM
inhibition [6]: 15%
inhibition [7]: inactive

Compound: CCCCCCN1C(=O)O[C@H]2C(=C[C@H]3[C@@H]4CCc5cc(O)ccc5[C@H]4CC[C@]23C)[C@@H]1c1cccc(C(N)=O)c1
inhibition [1]: Active

Compound: CCN1C(=O)O[C@@H]2[C@@]3(C)CC[C@@H]4c5ccc(O)cc5CC[C@H]4[C@@H]3C[C@]2(O)[C@@H]1c1cccc(C(N)=O)c1
inhibition [1]: Active

Compound: CCCCCCCCN1C(=O)O[C@H]2C(=C[C@H]3[C@@H]4CCc5cc(O)ccc5[C@H]4CC[C@]23C)[C@@H]1c1cccc(C(N)=O)c1
inhibition [1]: Active

Continued, in another order:

inhibition [1]: Active
Compound: CCCCN1C(=O)O[C@@H]2[C@@]3(C)CC[C@@H]4c5ccc(O)cc5CC[C@H]4[C@@H]3C[C@]2(O)[C@@H]1c1cccc(C(N)=O)c1

inhibition [1]: Active
Compound: CCCCCCCCN1C(=O)O[C@@H]2[C@@]3(C)CC[C@@H]4c5ccc(O)cc5CC[C@H]4[C@@H]3C[C@]2(O)[C@@H]1c1cccc(C(N)=O)c1

inhibition [1]: Active
IC50 [5]: 6.6 µM
Compound: CCCCCCN1C(=O)O[C@@H]2[C@@]3(C)CC[C@@H]4c5ccc(O)cc5CC[C@H]4[C@@H]3C[C@]2(O)[C@@H]1c1cccc(C(N)=O)c1
Activity (T47D [2]): Active
